# In ChEMBL document CHEMBL3997762 (Medchemcomm, 2016):
# The source made the active and inactive calls. The rule behind the calls is not given here.
# Experiments:
# [1] = tested on: SGC-7901; experiment: Cytotoxicity against human SGC7901 cells assessed as effect on cell viability at 10 uM after 48 hrs by MTT assay relative to control; type: functional
# [2] = tested on: GES1; experiment: Cytotoxicity against human GES-1 cells assessed as effect on cell viability at 10 uM after 48 hrs by MTT assay relative to control; type: cell-based; conditions: ges1, 48 h
# [3] = Stability of the compound in PBS in presence of FBS by fluorescence assay; type: physicochemical; conditions: cattle, buffer
# [4] = Stability of the compound in DMEM in presence of FBS by fluorescence assay
# [5] = Drug uptake in human SGC7901 cells at 5 uM after 24 hrs by MitoTracker Red CM-H2-XRos/Hoechst 33342 dye based confocal fluorescence microscopic analysis; type: ADME, cell-based; conditions: sgc-7901, 24 h
# [6] = Drug uptake in human SGC7901 cells at 5 uM after 4 hrs by flow cytometry relative to control; type: ADME, cell-based; conditions: sgc-7901, 4 h
# [7] = Drug uptake in human SGC7901 cells at 5 uM after 24 hrs by flow cytometry relative to control; type: ADME, cell-based; conditions: sgc-7901, 24 h
# [8] = Drug uptake in human SGC7901 cells at 5 uM after 48 hrs by flow cytometry relative to control; type: ADME, cell-based; conditions: sgc-7901, 48 h
# [9] = tested on: SGC-7901; experiment: Cytotoxicity against human SGC7901 cells assessed as effect on cell viability at 50 uM after 48 hrs by MTT assay relative to control; type: functional
# [10] = tested on: GES1; experiment: Cytotoxicity against human GES-1 cells assessed as effect on cell viability at 50 uM after 48 hrs by MTT assay relative to control; type: cell-based; conditions: ges1, 48 h
# [11] = Drug localization in mitochondria of human SGC7901 cells at 5 uM after 24 hrs by MitoTracker Red CM-H2-XRos/Hoechst 33342 dye based confocal fluorescence microscopic analysis; type: ADME
# [12] = tested on: SGC-7901; experiment: Cytotoxicity against human SGC7901 cells assessed as decrease in cell viability pretreated for 4 hrs followed by DTT addition measured 48 to 72 hrs post dose by MTT assay; type: functional, cell-based
# [13] = Stability of the compound in DMEM in presence of FBS up to 96 hrs by fluorescence assay
# [14] = Drug uptake in human SGC7901 cells at 3 uM after 4 hrs by flow cytometry relative to control; type: ADME, cell-based; conditions: sgc-7901, 4 h
# [15] = Drug uptake in human SGC7901 cells at 3 uM after 24 hrs by flow cytometry relative to control; type: ADME, cell-based; conditions: sgc-7901, 24 h
# [16] = tested on: SGC-7901; experiment: Induction of apoptosis in human SGC7901 cells after 48 hrs by Annexin V/[…] staining-based flow cytometric method; type: functional, cell-based
# [17] = Drug localization in mitochondria of human MCF7 cells at 5 uM after 24 hrs by MitoTracker Red CM-H2-XRos/Hoechst 33342 dye based confocal fluorescence microscopic analysis; type: ADME
# [18] = tested on: SGC-7901; experiment: Induction of apoptosis in human SGC7901 cells assessed as decrease in viable cells after 48 hrs by Annexin V/[…] staining-based flow cytometric method; type: functional, cell-based
# [19] = tested on: SGC-7901; experiment: Induction of apoptosis in human SGC7901 cells assessed as decrease in nonapoptotic cells after 48 hrs by Annexin V/[…] staining-based flow cytometric method; type: functional, cell-based
# [20] = tested on: SGC-7901; experiment: Cell cycle arrest in human SGC7901 cells assessed as accumulation at G1 phase at <20 uM after 24 hrs by propidium iodide staining based flow cytometry; type: functional
# [21] = tested on: SGC-7901; experiment: Cell cycle arrest in human SGC7901 cells assessed as accumulation at S phase at >20 uM after 24 hrs by propidium iodide staining based flow cytometry; type: functional
# [22] = tested on: SGC-7901; experiment: Induction of ROS production in human SGC7901 cells at 5 to 20 uM after 48 hrs by DHE dye based flow cytometry; type: functional, cell-based
# [23] = tested on: GES1; experiment: Cytotoxicity against human GES-1 cells assessed as effect on cell viability up to 100 uM after 48 to 72 hrs by MTT assay; type: cell-based
# [24] = tested on: SGC-7901; experiment: Cell cycle arrest in human SGC7901 cells assessed as decrease in G1 phase at >20 uM after 24 hrs by propidium iodide staining based flow cytometry; type: functional
# [25] = tested on: SGC-7901; experiment: Induction of ROS production in human SGC7901 cells at 5 to 10 uM after 48 hrs by MitoTracker Red CM-H2-XRos dye based flow cytometry; type: functional, cell-based
SMILES,fold change (FC) [1],fold change (FC) [2],Stability [3],Stability [4],Drug uptake [5],Drug uptake [6],Drug uptake [7],Drug uptake [8],fold change (FC) [9],fold change (FC) [10],Activity [23],also measured
O=C(Cn1cc(F)c(=O)[nH]c1=O)NCC[n+]1ccc(/C=C/c2c[nH]c3ccccc23)cc1.[Br-],0.977,1.055,72 h,48 h,Not Active,0.8%,1.4%,1.6%,0.888,1.069,,
O=c1[nH]c(=O)n(CCSSCC[n+]2ccc(/C=C/c3c[nH]c4ccccc34)cc2)cc1F.[Br-],1.108,0.978,72 h,,,93.2%,98.8%,99.6%,1.021,0.895,,Drug uptake [11]: Active; Activity [12]: Active; Stability [13]: Stable
C[n+]1ccc(/C=C/c2c[nH]c3ccccc23)cc1.[I-],,,,,,,,,,,,Drug uptake [14]: 95.4%; Drug uptake [15]: 96.9%
O=C(Cn1cc(F)c(=O)[nH]c1=O)OCC[n+]1ccc(/C=C/c2c[nH]c3ccccc23)cc1.[Br-],0.707,0.822,72 h,48 h,,96.5%,96.6%,95.8%,0.597,0.561,Non-Toxic,Activity [16]: Dose-dependent effect; Drug uptake [17]: Active; Activity [18]: Dose-dependent effect; Activity [19]: Dose-dependent effect; Activity [20]: Active; Activity [21]: Active; Activity [22]: Active; Activity [24]: Active; Activity [25]: Active
O=c1[nH]c(=O)n(CCC[n+]2ccc(/C=C/c3c[nH]c4ccccc34)cc2)cc1F.[Br-],,,72 h,48 h,Not Active,78%,80.5%,62.6%,1.019,1.072,,
O=c1[nH]cc(F)c(=O)[nH]1 [FLUOROURACIL],0.986,0.733,,,,,,,0.6,0.53,Toxic,
